Results on one compound are retold here after BindingDB's records for doi:10.1016/s0960-894x(98)00444-2 (Wayne State University, 1999).

One may read the Ki as the equilibrium dissociation constant of an inhibitor or competing ligand from its target. Higher therefore signals a looser hold on the target.

For this assay, the target named is Prothrombin (Homo sapiens, UniProt P00734). Briefly: ChEBML_216950. How it is done:
Dissociation constant was evaluated by competitive inhibition of alpha-thrombin using the method of Dixon enzyme assay.

As for `C1=[N+]2c3ccccc3C=[N+]3c4ccccc4C=[N+]4c5ccccc5C[N](c5ccccc51)[Pd]234` (stereo unspecified) [Palladium analogue], affinity was put at a Ki of 170 µM.
